# Assay results published in patent US4156777A, “Process for producing glucopyranose-nitrosourea compounds and novel compounds included therein” (Tokyo Tanabe Company, Limited, priority 1977, dated 1979).
# Columns and labels:
# [1] = tested on: Proteus vulgaris AHU 1469; experiment: Antibacterial activity, broth-dilution method; assay type: cell-based; details: AHU1469
# Description: (§1) Using 6DCNU and 6MCαG, minimum inhibiting concentrations (referred to as "MIC") for various kinds of bacteria were estimated by means of the broth-dilution method.
# [2] = tested on: Klebsiella pneumoniae IFM 3008; experiment: Antibacterial activity, broth-dilution method; assay type: cell-based; details: IFM3008
# Description: as §1
# [3] = tested on: Escherichia coli NIHJ JC-2; experiment: Antibacterial activity, broth-dilution method; assay type: cell-based; details: NIHJJC2
# Description: as §1
# [4] = tested on: Streptococcus faecalis AHU 1085; experiment: Antibacterial activity, broth-dilution method; assay type: cell-based; details: Enterococcus faecalis, AHU1085
# Description: as §1
# [5] = tested on: Staphylococcus aureus FDA 209P JC-1; experiment: Antibacterial activity, broth-dilution method; assay type: cell-based; details: FDA209P
# Description: as §1
# [6] = tested on: Pseudomonas aeruginosa IFO 3080; experiment: Antibacterial activity, broth-dilution method; assay type: cell-based; details: IFO3080
# Description: as §1
# [7] = tested on: Mycobacterium smegmatis ATCC 607; experiment: Antibacterial activity, broth-dilution method; assay type: cell-based; details: Mycolicibacterium smegmatis, ATCC607
# Description: as §1
# [8] = tested on: Shigella sonnei; experiment: Antibacterial activity, broth-dilution method; assay type: cell-based
# Description: as §1
# [9] = tested on: Sarcina lutea ATCC 9341; experiment: Antibacterial activity, broth-dilution method; assay type: cell-based; details: Micrococcus luteus, ATCC9341
# Description: as §1
# [10] = tested on: Bacillus subtilis ATCC 6633; experiment: Antibacterial activity, broth-dilution method; assay type: cell-based; details: ATCC6633
# Description: as §1
# [11] = tested on: leukemia L-1210; experiment: Antitumor activity against leukemia L-1210 implanted in BDF1 mice (ILS, 60 days survivors); assay type: in vivo
# Description: Test compounds were given to BDF1 mice 24 hrs after implantation of 10^6 cells of leukemia L-1210 in each animal, through single intraperitoneal administration, intraperitoneal administration for 5 successive days, single oral administration or oral administration for 5 successive days, whereupon the increase in life span (referred to as "ILS") and number of 60 days survivors of test animals were estimated, said test of antitumor activity being that according to the method of the National Cancer Center, Tokyo [A. Hoshi et al: Farmashia, 9 (1973), 464]. In the tests, the compounds were dissolved in physiological saline solution just before administration.
# ^a i.p.: intraperitoneal administration p.o: oral administration
# D1 : single administration D1~5 : administration for 5
# ^b percentage calculated from mean survival time over control
# ^c survivors/six animals
# [12] = Solubility in water at 25° C.; assay type: physicochemical; details: amount soluble in 1 ml water at 25° C.
# [13] = Effect on respiration, blood pressure, heart rate and electrocardiogram; assay type: in vivo, Beagle dogs; details: dog, in vivo, iv; injected into brachial veins, anesthetized Beagle dogs; read-out: maximum dosage not effected on respiration, blood pressure, heart rate and electrocardiogram
# Description: Beagle dogs of both sexes weighing about 10 kg were anesthetized with pentobarbital sodium (30 mg/kg, i.v.), and immobilized in the supine position. Test compounds dissolved in physiological saline solution were injected into the brachial veins of the animals and the arteries at cannulated positions were treated with heparin sodium as anticoagulant.
# The respiration rate of each animal was estimated with a respirometer (Nihonkohden, RP-3) through a tracheal cannula, the blood pressure with an electro-haemodynamometer (Nihonkohden, MP-4T) attached surgically to the femoral artery, and the heart rate with a pulse-rate tachometer (Nihonkohden, RT-2) through the trigger pulse of the blood pressure.
# [14] = Acute toxicity (LD50); assay type: in vivo, male Wister rats; details: rat, in vivo, after 1 week
# Description: Test compounds were dissolved in physiological saline solution just before their dosage and administered to male Wister rats, intraperitoneally, intravenously and orally. After 1 week, the LD50 of each compound was calculated from the mortality of the test animals by the Lichfield-Wilcoxon Method.
# i.v.: intravenous administration
# [15] = Diabetogenic activity (blood glucose concentration after intravenous administration); assay type: in vivo, male Wister rats
# Description: 40-96 mg/kg of the test compounds were administered intravenously to starved male Wister rats weighing 240-260 g each, and the blood glucose concentrations of the test animals were estimated by the glucose exidase method [L. L. Saloman et al: Anal. Chem., 31 (1959), 453], in which test the compounds were dissolved in physiological saline solution just before administration. […]
smiles,measurement,setting,value
"CO[C@H]1O[C@H](CNC(=O)N(CCCl)N=O)[C@@H](O)[C@H](O)[C@H]1O [Example 6MCαG, 1-(2-chloroethyl)-3-(methyl α-D-glucopyranos-6-yl)-1-nitrosourea]",MIC,[1],> 200 µg/mL
same,MIC,[2],> 200 µg/mL
same,MIC,[3],> 200 µg/mL
same,MIC,[4],> 200 µg/mL
same,MIC,[5],> 200 µg/mL
same,MIC,[6],> 200 µg/mL
same,MIC,[7],> 200 µg/mL
same,MIC,[8],> 200 µg/mL
same,MIC,[9],> 200 µg/mL
same,MIC,[10],> 200 µg/mL
same,ILS,"[11]; 2.3 mg/kg/day, i.p. D1~5",> 207%
same,Survivors (60 days),"[11]; 2.3 mg/kg/day, i.p. D1~5",1/6
same,ILS,"[11]; 3.2 mg/kg/day, i.p. D1~5",> 521%
same,Survivors (60 days),"[11]; 3.2 mg/kg/day, i.p. D1~5",4/6
same,ILS,"[11]; 3.2 mg/kg/day, p.o. D1~5",38%
same,ILS,"[11]; 4.5 mg/kg/day, i.p. D1~5",> 607%
same,Survivors (60 days),"[11]; 4.5 mg/kg/day, i.p. D1~5",5/6
same,ILS,"[11]; 6.3 mg/kg/day, i.p. D1",> 241%
same,Survivors (60 days),"[11]; 6.3 mg/kg/day, i.p. D1",3/6
same,ILS,"[11]; 6.3 mg/kg/day, i.p. D1~5",> 722%
same,Survivors (60 days),"[11]; 6.3 mg/kg/day, i.p. D1~5",6/6
same,ILS,"[11]; 6.3 mg/kg/day, p.o. D1~5",> 397%
same,Survivors (60 days),"[11]; 6.3 mg/kg/day, p.o. D1~5",3/6
same,ILS,"[11]; 9.0 mg/kg/day, i.p. D1",> 604%
same,Survivors (60 days),"[11]; 9.0 mg/kg/day, i.p. D1",5/6
same,ILS,"[11]; 9.0 mg/kg/day, i.p. D1~5",> 700%
same,Survivors (60 days),"[11]; 9.0 mg/kg/day, i.p. D1~5",6/6
same,ILS,"[11]; 9.0 mg/kg/day, p.o. D1~5",> 417%
same,Survivors (60 days),"[11]; 9.0 mg/kg/day, p.o. D1~5",3/6
same,ILS,"[11]; 12.5 mg/kg/day, i.p. D1",> 619%
same,Survivors (60 days),"[11]; 12.5 mg/kg/day, i.p. D1",6/6
same,ILS,"[11]; 12.5 mg/kg/day, i.p. D1~5",> 722%
same,Survivors (60 days),"[11]; 12.5 mg/kg/day, i.p. D1~5",6/6
same,ILS,"[11]; 12.5 mg/kg/day, p.o. D1~5",> 700%
same,Survivors (60 days),"[11]; 12.5 mg/kg/day, p.o. D1~5",6/6
same,ILS,"[11]; 18.0 mg/kg/day, i.p. D1",> 632%
same,Survivors (60 days),"[11]; 18.0 mg/kg/day, i.p. D1",6/6
same,ILS,"[11]; 18.0 mg/kg/day, i.p. D1~5",> 493%
same,Survivors (60 days),"[11]; 18.0 mg/kg/day, i.p. D1~5",4/6
same,ILS,"[11]; 18.0 mg/kg/day, p.o. D1~5",> 679%
same,Survivors (60 days),"[11]; 18.0 mg/kg/day, p.o. D1~5",6/6
same,ILS,"[11]; 25.0 mg/kg/day, i.p. D1",> 625%
same,Survivors (60 days),"[11]; 25.0 mg/kg/day, i.p. D1",6/6
same,ILS,"[11]; 25.0 mg/kg/day, i.p. D1~5",> 393%
same,Survivors (60 days),"[11]; 25.0 mg/kg/day, i.p. D1~5",3/6
same,ILS,"[11]; 25.0 mg/kg/day, p.o. D1~5",233%
same,ILS,"[11]; 35.0 mg/kg/day, i.p. D1",> 632%
same,Survivors (60 days),"[11]; 35.0 mg/kg/day, i.p. D1",6/6
same,ILS,"[11]; 35.0 mg/kg/day, i.p. D1~5",> 157%
same,Survivors (60 days),"[11]; 35.0 mg/kg/day, i.p. D1~5",1/6
same,ILS,"[11]; 50.0 mg/kg/day, i.p. D1",> 388%
same,Survivors (60 days),"[11]; 50.0 mg/kg/day, i.p. D1",3/6
same,solubility,[12],900 mg/mL
same,NOAEL,[13],50 mg/kg
same,LD50 at 168 h,[14]; ip,42 mg/kg
same,LD50 at 168 h,[14]; iv,42 mg/kg
same,LD50 at 168 h,[14]; po,50 mg/kg
same,Blood Glucose Concentration,"[15]; 40 mg/kg i.v., 0 hr after treatment",72.0 mg/dL
same,Blood Glucose Concentration,"[15]; 40 mg/kg i.v., 2 hr after treatment",75.9 mg/dL
same,Blood Glucose Concentration,"[15]; 40 mg/kg i.v., 4 hr after treatment",79.3 mg/dL
same,Blood Glucose Concentration,"[15]; 40 mg/kg i.v., 7 hr after treatment",71.7 mg/dL
same,Blood Glucose Concentration,"[15]; 40 mg/kg i.v., 10 hr after treatment",79.4 mg/dL
same,Blood Glucose Concentration,"[15]; 40 mg/kg i.v., 24 hr after treatment",73.1 mg/dL
same,Blood Glucose Concentration,"[15]; 40 mg/kg i.v., 48 hr after treatment",75.3 mg/dL
same,Blood Glucose Concentration,"[15]; 60 mg/kg i.v., 0 hr after treatment",71.8 mg/dL
same,Blood Glucose Concentration,"[15]; 60 mg/kg i.v., 2 hr after treatment",72.5 mg/dL
same,Blood Glucose Concentration,"[15]; 60 mg/kg i.v., 4 hr after treatment",69.8 mg/dL
same,Blood Glucose Concentration,"[15]; 60 mg/kg i.v., 7 hr after treatment",68.7 mg/dL
same,Blood Glucose Concentration,"[15]; 60 mg/kg i.v., 10 hr after treatment",67.7 mg/dL
same,Blood Glucose Concentration,"[15]; 60 mg/kg i.v., 24 hr after treatment",68.4 mg/dL
same,Blood Glucose Concentration,"[15]; 60 mg/kg i.v., 48 hr after treatment",70.8 mg/dL
same,Blood Glucose Concentration,"[15]; 80 mg/kg i.v., 0 hr after treatment",73.7 mg/dL
same,Blood Glucose Concentration,"[15]; 80 mg/kg i.v., 2 hr after treatment",82.0 mg/dL
same,Blood Glucose Concentration,"[15]; 80 mg/kg i.v., 4 hr after treatment",78.3 mg/dL
same,Blood Glucose Concentration,"[15]; 80 mg/kg i.v., 7 hr after treatment",77.8 mg/dL
same,Blood Glucose Concentration,"[15]; 80 mg/kg i.v., 10 hr after treatment",73.6 mg/dL
same,Blood Glucose Concentration,"[15]; 80 mg/kg i.v., 24 hr after treatment",76.3 mg/dL
same,Blood Glucose Concentration,"[15]; 80 mg/kg i.v., 48 hr after treatment",83.1 mg/dL
same,"blood glucose concentrations versus control, in words","[15]; i.v., rats",substantially the same blood glucose concentrations as that in the control
